In patent publication US8071612B2, “6-alkenyl and 6-phenylalkyl substituted 2-quinolinones and 2-quinoxalinones as poly(ADP-ribose) polymerase inhibitors” (Janssen Pharmaceutica, NV, priority 2004, dated 2011):

How the values were obtained:
PARP-1 enzyme [1] = molecular target: T1, PARP-1 enzyme (Homo sapiens, UniProt P09874); test: In vitro Scintillation Proximity Assay (SPA) for PARP-1 inhibitory activity; type: biochemical; conditions: nicked DNA activated PARP-1, [3H]-NAD+, biotinylated histones; read-out: In vitro SPA pIC50 (converted)
T1 construct: made in house
Procedure: Compounds of the present invention were tested in an in vitro assay based on SPA technology (proprietary to Amersham Pharmacia Biotech).
In principle, the assay relies upon the well established SPA technology for the detection of poly(ADP-ribosyl)ation of biotinylated target proteins, i.e histones. This ribosylation is induced using nicked DNA activated PARP-1 enzyme and [^3H]-nicotinamide adenine dinucleotide ([^3H]-NAD^+) as ADP-ribosyl donor.
As inducer of PARP-1 enzyme activity, nicked DNA was prepared. For this, 25 mg of DNA (supplier: Sigma) was dissolved in 25 ml DNAse buffer (10 mM Tris-HCl, pH 7.4; 0.5 mg/ml Bovine Serum Albumine (BSA); 5 mM MgCl2.6H2O and 1 mM KCl) to which 50 μl DNAse solution (1 mg/ml in 0.15 M NaCl) was added. After an incubation of 90 min. at 37° C., the reaction was terminated by adding 1.45 g NaCl, followed by a further incubation at 58° C. for 15 min. The reaction mixture was cooled on ice and dialysed at 4° C. for respectively 1.5 and 2 hours against 1.5 l of 0.2 M KCl, and twice against 1.5 l of 0.01 M KCl for 1.5 and 2 h respectively. The mixture was aliquoted and stored at −20° C. Histones (1 mg/ml, type II-A, supplier: Sigma) were biotinylated using the biotinylation kit of Amersham and stored aliquoted at −20° C. A stock solution of 100 mg/ml SPA poly(vinyl toluene) (PVT) beads (supplier: Amersham) was made in PBS. A stock solution of [^3]H-NAD^+ was made by adding 120 μl of [^3H]-NAD^+ (0.1 mCi/ml, supplier: NEN) to 6 ml incubation buffer (50 mM Tris/HCl, pH 8; 0.2 mM DTT; 4 mM MgCl2). A solution of 4 mM NAD^+ (supplier: Roche) was made in incubation buffer (from a 100 mM stock solution in water stored at −20° C.). The PARP-1 enzyme was produced using art known techniques, i.e. cloning and expression of the protein starting from human liver cDNA. Information concerning the used protein sequence of the PARP-1 enzyme including literature references can be found in the Swiss-Prot database under primary accession number P09874. Biotinylated histones and PVT-SPA beads were mixed and pre-incubated for 30 min. at room temperature. PARP-1 enzyme (concentration was lot dependent) was mixed with the nicked DNA and the mixture was pre-incubated for 30 min. at 4° C. Equal parts of this histones/PVT-SPA beads solution and PARP-1 enzyme/DNA solution were mixed and 75 μl of this mixture together with 1 μl of compound in DMSO and 25 μl of [^3H]-NAD^+ was added per well into a 96-well microtiterplate. The final concentrations in the incubation mixture were 2 μg/ml for the biotinylated histones, 2 mg/ml for the PVT-SPA beads, 2 μg/ml for the nicked DNA and between 5-10 μg/ml for the PARP-1 enzyme. After incubation of the mixture for 15 min. at room temperature, the reaction was terminated by adding 100 μl of 4 mM NAD^+ in incubation buffer (final concentration 2 mM) and plates were mixed.
The beads were allowed to sediment for at least 15 min. and plates transferred to a TopCountNXT™ (Packard) for scintillation counting, values were expressed as counts per minute (cpm). For each experiment, controls (containing PARP-1 enzyme and DMSO without compound), a blank incubation (containing DMSO but no PARP-1 enzyme or compound) and samples (containing PARP-1 enzyme and compound dissolved in DMSO) were run in parallel. All compounds tested were dissolved and eventually further diluted in DMSO. In first instance, compounds were tested at a concentration of 10^−5 M or 10^−6M. […] In each test, the blank value was subtracted from both the control and the sample values. The control sample represented maximal PARP-1 enzyme activity. For each sample, the amount of cpm was expressed as a percentage of the mean cpm value of the controls. When appropriate, IC50-values (concentration of the drug, needed to reduce the PARP-1 enzyme activity to 50% of the control) were computed using linear interpolation between the experimental points just above and below the 50% level. […]

PARP-1 enzyme [2] = molecular target: T1, PARP-1 enzyme; test: In vitro filtration assay for PARP-1 inhibitory activity; type: biochemical; conditions: nicked DNA activated PARP-1, [32P]-NAD, histones; read-out: In vitro filtration assay pIC50 (converted)
Procedure: Compounds of the present invention were tested in an in vitro filtration assay assessing PARP-1 activity (triggered in the presence of nicked DNA) by means of its histone poly (ADP-ribosyl)ation activity using [^32P]-NAD as ADP-ribosyl donor. The radioactive ribosylated histones were precipitated by trichloroacetic acid (TCA) in 96-well filterplates and the incorporated [^32P] measured using a scintillation counter
A mixture of histones (stock solution: 5 mg/ml in H2O), NAD (stock solution: 100 mM in H2O), and [^32P]-NAD^+ in incubation buffer (50 mM Tris/HCl, pH 8; 0.2 mM DTT; 4 mM MgCl2) was made. A mixture of the PARP-1 enzyme (5-10 μg/ml) and nicked DNA was also made. The nicked DNA was prepared as described in the in vitro SPA for PARP-1 inhibitory activity. Seventy-five μl of the PARP-1 enzyme/DNA mixture together with 1 μl of compound in DMSO and 25 μl of histones-NAD^+/[^32P]-NAD^+ mixture was added per well of a 96-well filterplate (0.45 μm, supplier Millipore). The final concentrations in the incubation mixture were 2 μg/ml for the histones, 0.1 mM for the NAD^+, […] (0.5 μC) for the [^32P]-NAD^+ and 2 μg/ml for the nicked DNA. Plates were incubated for 15 min. at room temperature and the reaction was terminated by the addition of 10 μl ice cold 100% TCA followed by the addition of 10 μl ice-cold BSA solution (1% in H2O). The protein fraction was allowed to precipitate for 10 min. at 4° C. and plates were vacuum filtered. The plates were subsequently washed with, for each well, 1 ml of 10% ice cold TCA, 1 ml of 5% ice cold TCA and 1 ml of 5% TCA at room temperature. Finally 100 μl of scintillation solution (Microscint 40, Packard) was added to each well and the plates were transferred to a TopCountNXT™ (supplier: Packard) for scintillation counting and values were expressed as counts per minute (cpm). For each experiment, controls (containing PARP-1 enzyme and DMSO without compound), a blank incubation (containing DMSO but no PARP-1 enzyme or compound) and samples (containing PARP-1 enzyme and compound dissolved in DMSO) were run in parallel. All compounds tested were dissolved and eventually further diluted in DMSO. In first instance, compounds were tested at a concentration of 10^−5M. […] In each test, the blank value was subtracted from both the control and the sample values. The control sample represented maximal PARP-1 enzyme activity. For each sample, the amount of cpm was expressed as a percentage of the mean cpm value of the controls. When appropriate, IC50-values (concentration of the drug, needed to reduce the PARP-1 enzyme activity to 50% of the control) were computed using linear interpolation between the experimental points just above and below the 50% level. Herein the effects of test compounds are expressed as pIC50 (the negative log value of the IC50-value). As a reference compound, 4-amino-1,8-naphthalimide was included to validate the filtration assay.

T1 sequence (P09874 whole entry): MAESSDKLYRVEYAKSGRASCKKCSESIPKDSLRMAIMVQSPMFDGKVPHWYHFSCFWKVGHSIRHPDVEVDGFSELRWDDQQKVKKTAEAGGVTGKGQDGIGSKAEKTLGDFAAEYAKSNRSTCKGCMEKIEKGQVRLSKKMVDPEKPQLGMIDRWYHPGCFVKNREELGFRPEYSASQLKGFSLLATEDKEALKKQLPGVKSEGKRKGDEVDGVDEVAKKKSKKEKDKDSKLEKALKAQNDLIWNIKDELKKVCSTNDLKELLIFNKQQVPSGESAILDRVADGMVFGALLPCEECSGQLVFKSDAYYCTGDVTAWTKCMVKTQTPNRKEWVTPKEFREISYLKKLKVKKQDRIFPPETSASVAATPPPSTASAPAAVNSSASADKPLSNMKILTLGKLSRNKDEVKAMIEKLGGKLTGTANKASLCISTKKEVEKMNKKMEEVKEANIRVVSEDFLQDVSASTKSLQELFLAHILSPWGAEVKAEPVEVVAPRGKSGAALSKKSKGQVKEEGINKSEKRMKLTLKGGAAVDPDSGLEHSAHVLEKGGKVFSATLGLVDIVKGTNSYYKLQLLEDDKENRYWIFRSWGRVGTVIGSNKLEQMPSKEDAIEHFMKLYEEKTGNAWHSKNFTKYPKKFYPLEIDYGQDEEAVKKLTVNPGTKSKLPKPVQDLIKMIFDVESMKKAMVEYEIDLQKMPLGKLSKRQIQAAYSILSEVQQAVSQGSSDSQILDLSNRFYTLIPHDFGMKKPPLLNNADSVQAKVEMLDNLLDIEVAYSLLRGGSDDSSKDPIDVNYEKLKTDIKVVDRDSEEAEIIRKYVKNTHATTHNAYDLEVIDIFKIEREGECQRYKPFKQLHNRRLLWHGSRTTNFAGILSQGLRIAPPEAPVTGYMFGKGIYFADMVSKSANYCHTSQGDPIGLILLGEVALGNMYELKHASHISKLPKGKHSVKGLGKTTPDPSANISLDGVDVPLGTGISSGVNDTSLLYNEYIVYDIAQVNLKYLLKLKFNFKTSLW

IC50 (PARP-1 enzyme [1]) [nM] | IC50 (PARP-1 enzyme [2]) [nM] | Structure (SMILES)
252 | 1740 | CCc1cc2cc(C(c3cccc(Cl)c3)N3CCC(=O)CC3)ccc2[nH]c1=O (stereo not shown) [Compound 77]
711 | 2390 | Cc1cc2cc(C(c3ccccc3)c3cncn3C)ccc2[nH]c1=O (stereo not shown) [Compound 10]
596 | 10000 | CCc1cc2cc(C(c3ccccc3)N3CCN(C)CC3)ccc2[nH]c1=O (stereo not shown) [Compound 39]
502 | 3510 | CCOC(=O)c1ccc(C(NC=O)c2ccc3[nH]c(=O)c(C)cc3c2)cc1 (stereo not shown) [Compound 100]
877 | 2700 | CCc1nc2cc(C(c3ccc(Cl)cc3)n3cnc(C)c3)ccc2[nH]c1=O (stereo not shown) [Compound 122]
794 | 4180 | Cc1cc2cc(/C(=C/CN(C)C)c3cccc4[nH]c(=O)c(C)cc34)ccc2[nH]c1=O [Compound 135]
302 | 1170 | CCc1cc2cc(C(c3cccc(C(F)(F)F)c3)N3CCC(=O)CC3)ccc2[nH]c1=O (stereo not shown) [Compound 37]
361 | 2300 | COc1ccc(C(c2ccc3[nH]c(=O)c(C)nc3c2)n2ccnc2)cc1 (stereo not shown) [Compound 128, 6-[(1H-imidazol-1-yl)(4-methoxyphenyl)methyl]-3-methyl-2(1H)-quinoxalinone]
498 | 3900 | CC(=O)NCCNC(c1ccccc1)c1ccc2[nH]c(=O)c(C)cc2c1 (stereo not shown) [Compound 25]
1430 | 7330 | Cc1cc2cc(C(NC(=O)NCCCN3CCCCC3)c3ccccc3)ccc2[nH]c1=O (stereo not shown) [Compound 7]
305 | 3970 | CCc1cc2cc(C(c3ccccc3)N3CCC(=O)CC3)ccc2[nH]c1=O (stereo not shown) [Compound 81]
451 | 2680 | Cc1cc2cc(C(CCN3CCCCC3)c3ccccc3)ccc2[nH]c1=O (stereo not shown) [Compound 89]
818 | 6350 | Cc1cc2cc(C(c3ccc(Cl)cc3)n3ccnc3)ccc2[nH]c1=O (stereo not shown) [Compound 95]
501 | 2380 | Cc1cc2cc(C(NC=O)c3cccc(Cl)c3)ccc2[nH]c1=O (stereo not shown) [Compound 104]
119 | 918 | CCc1cc2cc(C(NCCCN3CCCCC3)c3ccccc3)ccc2[nH]c1=O (stereo not shown) [Compound 26]
264 | 4070 | Cc1cc2cc(C(c3ccccc3)C3CCCN(C)C3)ccc2[nH]c1=O (stereo not shown) [Compound 88]
493 | 1680 | Cc1cc2cc(C(NC=O)c3ccccc3)ccc2[nH]c1=O (stereo not shown) [Compound 106]
1570 | 1380 | CCc1nc2cc(C(c3ccc(Cl)cc3)N3CCCCC3)ccc2[nH]c1=O (stereo not shown) [Compound 124]
316 | 2650 | CCc1cc2cc(C(c3ccc(Cl)cc3)N3CCC(=O)CC3)ccc2[nH]c1=O (stereo not shown) [Compound 38]
692 | 3910 | CCc1cc2cc(C(c3cccc(C(F)(F)F)c3)N3CCN(C)CC3)ccc2[nH]c1=O (stereo not shown) [Compound 80]
618 | 1470 | Cc1cc2cc(C(NC=O)c3ccc(Cl)cc3)ccc2[nH]c1=O (stereo not shown) [Compound 105]
339 |  | CCc1cc2cc(C(c3cccc(Cl)c3)N3CCN(C)CC3)ccc2[nH]c1=O (stereo not shown) [Compound 75]
190 |  | COCCNC1CCN(C(c2cccc(C(F)(F)F)c2)c2ccc3[nH]c(=O)c4ccccc4c3c2)CC1 (stereo not shown) [Compound 48]
152 |  | CCc1cc2cc(C(NC3CCCN(Cc4ccccc4)C3)c3ccc4c(c3)OCCO4)ccc2[nH]c1=O (stereo not shown) [Compound 53]
45.6 |  | O=c1[nH]c2ccc(C(NCCN3CCC(c4n[nH]c5cc(F)ccc45)CC3)c3ccc4c(c3)OCCO4)cc2c2ccccc12 (stereo not shown) [Compound 45]
8.43 |  | CCc1cc2cc(C(CCN(C)C)c3ccc4c(c3)OCCO4)ccc2[nH]c1=O (stereo not shown) [Compound 90]
710 |  | CCc1nc2cc(CC(c3ccc(Cl)cc3)N3CCN(C4CCCCC4)CC3)ccc2[nH]c1=O (stereo not shown) [Compound 117]
406 |  | CCc1nc2cc(CC(O)c3ccccc3)ccc2[nH]c1=O (stereo not shown) [Compound 108]
